Results from the C3SDB collision cross section collection.
Where “and” joins values, the source holds several entries; their conditions need not be identical. Identical values can stand only once.

Key:
[1] = instrument: TW, calibrated with phosphatidylcholines (ESI+) and phosphatidylethanolamines (ESI-)
[2] = instrument: DT, single field
[3] = instrument: DT, single field, calibrated with Agilent tune mix (Agilent)
[4] = instrument: TW, calibrated with phosphatidylcholines (ESI+) and phosphatidylethanolamines (ESI-); remark: listed apart in the source
[5] = [M+H]+; instrument: DT; stepped-field
[6] = [M+K]+; instrument: DT; stepped-field

CCCCCCCCCCCC=CCC(=O)OC[C@H](CO[C@@H]1O[C@H](CO[C@H]2O[C@H](CO)[C@H](O)C(O)C2O)[C@H](O)C(O)C1O)OC(=O)CC=CCCCCCCCCCCC (stereo partly specified) [DGDG(30:2)]
collision cross section (N2) ([1]; [M+NH4]+): 295.4 Å²
collision cross section (N2) ([1]; [M+Na]+): 291.7 Å²

CCCCCCCCCCCCCCCC(=O)OC[C@H](CO[C@@H]1O[C@H](CO[C@H]2O[C@H](CO)[C@H](O)C(O)C2O)[C@H](O)C(O)C1O)OC(=O)CCCCCCCCCCCCCCC (stereo partly specified) [DGDG(32:0)]
collision cross section (N2) ([1]; [M+NH4]+): 308.5 Å²
collision cross section (N2) ([1]; [M+Na]+): 306.7 Å²

CCCCCCCCCCCCC=CCC=CCC(=O)OC[C@H](CO[C@@H]1O[C@H](CO[C@H]2O[C@H](CO)[C@H](O)C(O)C2O)[C@H](O)C(O)C1O)OC(=O)CC=CCCCCCCCCCCCCCC (stereo partly specified) [DGDG(35:1)]
collision cross section (N2) ([1]; M+NH4]+): 317.4 Å²

CCCCCCCCCCCCCCCCCC(=O)OC[C@H](CO[C@@H]1O[C@H](CO[C@H]2O[C@H](CO)[C@H](O)C(O)C2O)[C@H](O)C(O)C1O)OC(=O)CCCCCCCCCCCCCCCCC (stereo partly specified) [DGDG(36:0)]
collision cross section (N2) ([1]; [M+NH4]+): 326.8 Å²

CCCCCCCCCCCCCCC(=O)OCC(COP(=O)([O-])OCC(O)COC(=O)C(N)CCCC[NH3+])OC(=O)CCCCCCCCCCCCC (stereo unspecified) [LysPG(29:0)]
collision cross section (N2) ([1]; [M+H]+): 287.8 Å²

CCCCCC/C=C\CCCCCCCCCC(=O)OCC(COP(=O)([O-])OCC(O)COC(=O)C(N)CCCC[NH3+])OC(=O)CCCCCCC/C=C\CCCCCC (stereo unspecified) [LysPG(34:2)]
collision cross section (N2) ([1]; [M+H]+): 298.4 Å²

CCCCCCCCCCCCCCCCCCCC(=O)OC(COC(=O)CCCCCCCCCCCCCC)COP(=O)([O-])OCC(O)COC(=O)C(N)CCCC[NH3+] (stereo unspecified) [LysPG(35:0)]
collision cross section (N2) ([1]; [M+H]+): 305.4 Å²

CC/C=C\C/C=C\C/C=C\CCCCCCCC(=O)OC[C@H](CO[C@@H]1O[C@H](CO)[C@H](O)C(O)C1O)OC(=O)CCCCC/C=C\CCCCCCCC (stereo partly specified) [MGDG(16:1/18:3)]
collision cross section (N2) ([1]; [M+NH4]+): 281.2 Å²
collision cross section (N2) ([1]; [M+Na]+): 278.6 Å²

CC/C=C\C/C=C\C/C=C\CCCCCCCC(=O)OC[C@H](CO[C@@H]1O[C@H](CO)[C@H](O)C(O)C1O)OC(=O)CCCCCCC/C=C\C/C=C\C/C=C\CC (stereo partly specified) [MGDG(18:3/18:3)]
collision cross section (N2) ([1]; [M+CH3COO]-): 286.3 Å²
collision cross section (N2) ([1]; [M+Cl]-): 278.5 Å²
collision cross section (N2) ([1]; [M+K]+): 282.5 Å²
collision cross section (N2) ([1]; [M+NH4]+): 284.1 Å²
collision cross section (N2) ([1]; [M+Na]+): 281 Å²
collision cross section (N2) ([1]; [M-H]-): 276.2 Å²

CCCCCCCCCCCCCCCCCCC(=O)OC[C@H](COP(=O)(O)O)OC(=O)CCCCCCCCCCCC [PA(16:0/16:0)]
collision cross section (N2) ([1]; [M-H]-): 251.4 Å²

CCCCCCCCCCCCCCCCC(=O)OC[C@H](COP(=O)(O)O)OC(=O)CCCCCCCCCCCC [PA(30:0)]
collision cross section (N2) ([1]; [M-H]-): 244.9 Å²

CCCCCCCCCCCCCCCCCCC(=O)OC[C@H](COP(=O)(O)O)OC(=O)CCCCCCCCCCCC [PA(32:0)]
collision cross section (N2) ([1]; [M-H]-): 251.1 Å²

CCCCCCCCCCCCCCCCCCC(=O)O[C@H](COC(=O)CCCCCCCCCCCCCCCC)COP(=O)(O)O [PA(36:0)]
collision cross section (N2) ([1]; [M-H]-): 264.1 Å²

CCCCCCCCCCCCCCCCCCCCC(=O)O[C@H](COC(=O)CCCCCCCCCCCC)COP(=O)([O-])OCC[N+](C)(C)C [PC(34:0)]
collision cross section (N2) ([2]; [M+H]+): 289.07 Å² and 290.41 Å²
collision cross section (N2) ([2]; [M+Na]+): 288.39 Å²
collision cross section (N2) ([3]; [M+H]+): 289.7 Å²
collision cross section (N2) ([4]; [M+H]+): 285.8 Å²
collision cross section (N2) [5]: 301.1 Å²

CCCCCC/C=C\CCCCCCCCCC(=O)OC[C@H](COP(=O)([O-])OCC[N+](C)(C)C)OC(=O)CCCCCCCCCCCCCCC [PC(34:1)]
collision cross section (N2) ([2]; [M+H]+): 285.62 Å² and 287.54 Å²
collision cross section (N2) ([3]; [M+H]+): 287.1 Å²
collision cross section (N2) ([4]; [M+CH3COO]-): 289.1 Å²
collision cross section (N2) ([4]; [M+H]+): 285.3 Å²
collision cross section (N2) [5]: 300.3 Å²

CCCCCCCC/C=C\C/C=C\C/C=C\CCCC(=O)OC[C@H](COP(=O)([O-])OCC[N+](C)(C)C)OC(=O)CCCCCCCCCCCCC [PC(34:3)]
collision cross section (N2) [6]: 292.4 Å²
collision cross section (N2) ([3]; [M+HCOO]-): 283.5 Å²
collision cross section (N2) ([3]; [M+H]+): 281.8 Å²
collision cross section (N2) ([4]; [M+H]+): 278.8 Å²
collision cross section (N2) [5]: 292.3 Å²
